Reference: patent publication US20250195521A1 (Revolution Medicines, Inc., priority 2020, published 2025)
pIC50: −log10 of the molar value.

How the values were obtained:
Type in all cases: biochemical
[1] = biological target: KRAS G12V (Homo sapiens (Human), UniProt P01116+P62937, G12V); test: Ras-Raf disruption/FRET/MOA assay, KRAS G12V; settings: read-out: KRAS G12V FRET IC50
Text: (§1) Disruption of B-Raf Ras-Binding Domain (BRAF^RBD) Interaction with K-Ras by Compounds of the Invention (Also Called a FRET Assay or an MOA Assay)
(§2) Note—The following protocol describes a procedure for monitoring disruption of K-Ras G12C (GMP-PNP) binding to BRAF^RBD by a compound of the invention. This protocol may also be executed substituting other Ras proteins or nucleotides, such as K-Ras G12D and K-Ras G13D.
(§3) The purpose of this biochemical assay was to measure the ability of test compounds to facilitate ternary complex formation between a nucleotide-loaded K-Ras isoform and Cyclophilin A; the resulting ternary complex disrupts binding to a BRAF^RBD construct, inhibiting K-Ras signaling through a RAF effector. Data is reported as IC50 values.
(§4) In assay buffer containing 25 mM HEPES pH 7.3, 0.002% Tween20, 0.1% BSA, 100 mM NaCl and 5 mM MgCl2, tagless Cyclophilin A, His6-K-Ras-GMPPNP, and GST-BRAF^RBD were combined in a 384-well assay plate at final concentrations of 25 μM, 12.5 nM, and 50 nM, respectively. Compound was present in plate wells as a 10-point 3-fold dilution series starting at a final concentration of 30 μM. After incubation at 25° C. for 3 hours, a mixture of anti-His Eu—W1024 and anti-GST allophycocyanin was then added to assay sample wells at final concentrations of 10 nM and 50 nM, respectively, and the reaction incubated for an additional 1.5 hours. […] Compounds that facilitate disruption of a K-Ras: RAF complex were identified as those eliciting a decrease in the TR-FRET ratio relative to DMSO control wells.

[2] = biological target: KRAS G12C (Homo sapiens (Human), UniProt P01116+P62937, G12C); test: Ras-Raf disruption/FRET/MOA assay, KRAS G12C; settings: read-out: KRAS G12C FRET data IC50
Sequence of KRAS G12C (P01116-2 other isoform, or with tags, fused parts or gaps G12C): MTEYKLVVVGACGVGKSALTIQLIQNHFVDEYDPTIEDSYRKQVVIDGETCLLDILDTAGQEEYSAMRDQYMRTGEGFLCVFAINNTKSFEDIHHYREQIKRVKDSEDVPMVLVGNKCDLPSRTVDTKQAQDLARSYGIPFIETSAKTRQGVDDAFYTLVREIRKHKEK
Sequence of KRAS G12C (P62937 whole entry): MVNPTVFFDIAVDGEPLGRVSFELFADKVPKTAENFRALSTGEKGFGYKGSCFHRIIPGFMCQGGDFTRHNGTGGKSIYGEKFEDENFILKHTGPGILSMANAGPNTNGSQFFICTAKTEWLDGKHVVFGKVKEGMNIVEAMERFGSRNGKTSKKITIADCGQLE
Text: as §1, §2, §3, §4

[3] = biological target: KRAS G13C (Homo sapiens (Human), UniProt P01116+P62937, G13C); test: Ras-Raf disruption/FRET/MOA assay, KRAS G13C; settings: read-out: KRAS G13C FRET IC50
Sequence of KRAS G13C (P01116 other isoform, or with tags, fused parts or gaps G13C): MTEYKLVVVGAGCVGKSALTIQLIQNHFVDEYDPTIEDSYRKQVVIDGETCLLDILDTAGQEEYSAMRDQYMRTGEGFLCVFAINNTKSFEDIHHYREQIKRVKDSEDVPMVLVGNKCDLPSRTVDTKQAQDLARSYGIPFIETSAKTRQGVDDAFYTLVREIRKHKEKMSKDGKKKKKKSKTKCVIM
Sequence of KRAS G13C (P62937 whole entry): as the sequence (P62937 whole entry) above
Text: as §1, §2, §3, §4

[4] = biological target: KRAS WT (Homo sapiens (Human), UniProt P01116+P62937); test: Ras-Raf disruption/FRET/MOA assay, KRAS WT; settings: read-out: KRAS WT FRET IC50
Sequence of KRAS WT (P01116 other isoform, or with tags, fused parts or gaps): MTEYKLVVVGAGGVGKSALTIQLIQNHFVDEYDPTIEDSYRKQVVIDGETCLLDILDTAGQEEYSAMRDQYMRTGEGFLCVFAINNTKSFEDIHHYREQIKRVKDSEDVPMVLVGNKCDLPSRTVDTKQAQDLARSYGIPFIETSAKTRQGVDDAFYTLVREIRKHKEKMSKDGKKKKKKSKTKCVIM
Sequence of KRAS WT (P62937 whole entry): as the sequence (P62937 whole entry) above
Text: as §1, §2, §3, §4

[5] = biological target: KRAS G12D (Homo sapiens (Human), UniProt P01116+P62937, G12D); test: Ras-Raf disruption/FRET/MOA assay, KRAS G12D; settings: read-out: KRAS G12D FRET IC50
Sequence of KRAS G12D (P01116 other isoform, or with tags, fused parts or gaps G12D): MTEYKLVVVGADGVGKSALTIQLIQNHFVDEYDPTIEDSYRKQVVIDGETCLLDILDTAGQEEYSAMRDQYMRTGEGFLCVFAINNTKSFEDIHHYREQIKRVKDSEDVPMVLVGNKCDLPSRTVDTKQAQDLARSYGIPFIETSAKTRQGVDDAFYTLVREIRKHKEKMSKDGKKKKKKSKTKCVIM
Sequence of KRAS G12D (P62937 whole entry): as the sequence (P62937 whole entry) above
Text: as §1, §2, §3, §4

[6] = biological target: KRAS G12S (Homo sapiens (Human), UniProt P01116+P62937, G12S); test: Ras-Raf disruption/FRET/MOA assay, KRAS G12S; settings: read-out: KRAS G12S FRET IC50
Sequence of KRAS G12S (P01116 other isoform, or with tags, fused parts or gaps G12S): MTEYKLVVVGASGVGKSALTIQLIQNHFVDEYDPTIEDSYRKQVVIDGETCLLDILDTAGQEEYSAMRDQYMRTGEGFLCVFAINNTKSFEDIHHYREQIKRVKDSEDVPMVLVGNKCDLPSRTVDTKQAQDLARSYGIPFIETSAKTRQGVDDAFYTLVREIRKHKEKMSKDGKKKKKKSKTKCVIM
Sequence of KRAS G12S (P62937 whole entry): as the sequence (P62937 whole entry) above
Text: as §1, §2, §3, §4

[7] = biological target: KRAS G13D (Homo sapiens (Human), UniProt P01116+P62937, G13D); test: Ras-Raf disruption/FRET/MOA assay, KRAS G13D; settings: read-out: KRAS G13D FRET IC50
Sequence of KRAS G13D (P01116 other isoform, or with tags, fused parts or gaps G13D): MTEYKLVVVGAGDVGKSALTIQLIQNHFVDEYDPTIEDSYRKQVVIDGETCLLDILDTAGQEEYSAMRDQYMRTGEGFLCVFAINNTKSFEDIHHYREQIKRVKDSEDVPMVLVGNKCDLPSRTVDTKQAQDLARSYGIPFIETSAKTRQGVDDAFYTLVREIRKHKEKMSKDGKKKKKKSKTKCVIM
Sequence of KRAS G13D (P62937 whole entry): as the sequence (P62937 whole entry) above
Text: as §1, §2, §3, §4

[8] = biological target: NRAS G12C (Homo sapiens (Human), UniProt P01111+P62937, G12C); test: Ras-Raf disruption/FRET/MOA assay, NRAS G12C; settings: read-out: NRAS G12C FRET data IC50
Sequence of NRAS G12C (P01111 whole entry G12C): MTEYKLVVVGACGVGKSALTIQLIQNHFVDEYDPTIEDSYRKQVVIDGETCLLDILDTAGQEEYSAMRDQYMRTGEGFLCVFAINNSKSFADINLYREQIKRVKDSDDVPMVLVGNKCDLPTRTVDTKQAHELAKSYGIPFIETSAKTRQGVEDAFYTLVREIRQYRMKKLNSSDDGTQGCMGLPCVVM
Sequence of NRAS G12C (P62937 whole entry): as the sequence (P62937 whole entry) above
Text: as §1, §2, §3, §4

Sequence of KRAS G12V (P01116 other isoform, or with tags, fused parts or gaps G12V): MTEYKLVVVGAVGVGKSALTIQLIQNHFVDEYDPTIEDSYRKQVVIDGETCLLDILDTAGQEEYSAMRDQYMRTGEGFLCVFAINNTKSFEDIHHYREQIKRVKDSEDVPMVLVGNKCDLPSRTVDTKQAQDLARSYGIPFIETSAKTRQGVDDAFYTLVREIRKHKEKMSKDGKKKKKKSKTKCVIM
Sequence of KRAS G12V (P62937 whole entry, the tested form may be a part): as the sequence (P62937 whole entry) above

| Structure (SMILES) | pIC50 [1] | pIC50 [2] | pIC50 [3] | pIC50 [4] | pIC50 [5] | pIC50 [6] | pIC50 [7] | pIC50 [8] |
| --- | --- | --- | --- | --- | --- | --- | --- | --- |
| CCn1c(-c2cnccc2COC)c2c3cc(ccc31)-c1cc(O)cc(c1)C[C@H](NC(=O)[C@H](C(C)C)N(C)C(=O)CCN(C)C(=O)[C@H]1CN1)C(=O)N1CCC[C@H](N1)C(=O)OCC(C)(C)C2 (single isomer, unassigned) [Example 41] | 6.00 to 7.00 | > 8.00 | 7.00 to 8.00 | 6.00 to 7.00 | 6.00 to 7.00 | 6.00 to 7.00 | 6.00 to 7.00 | > 8.00 |
| CCn1c(-c2cnccc2COC)c2c3cc(ccc31)-c1cc(O)cc(c1)C[C@H](NC(=O)[C@H](C(C)C)N(C)C(=O)[C@H]1CCN(C(=O)[C@H]3CN3)C1)C(=O)N1CCC[C@H](N1)C(=O)OCC(C)(C)C2 [Example 1, (3S)-1-((R)-aziridine-2-carbonyl)-N-((2S)-1-(((6^3S,4S)-1^1-ethyl-25-hydroxy-1^2-(4-(methoxymethyl)pyridin-3-yl)-10,10-dimethyl-5,7-dioxo-6^1,6^2,6^3,6^4,6^5,6^6-hexahydro-1^1H-8-oxa-1 (5,3)-indola-6 (1,3)-pyridazina-2 (1,3)-benzenacycloundecaphane-4-yl)amino)-3-methyl-1-oxobutan-2-yl)-N-methylpyrrolidine-3-carboxamide] | 7.00 to 8.00 | > 8.00 | 6.00 to 7.00 | 6.00 to 7.00 | 6.00 to 7.00 | 7.00 to 8.00 | 6.00 to 7.00 | > 8.00 |
| CCn1c(-c2cnccc2COC)c2c3cc(ccc31)-c1cc(O)cc(c1)C[C@H](NC(=O)[C@H](C(C)C)N(C)C(=O)[C@H]1CCN(C(=O)[C@@H]3CN3)C1)C(=O)N1CCC[C@H](N1)C(=O)OCC(C)(C)C2 [Example 2] | 6.00 to 7.00 | 7.00 to 8.00 | 6.00 to 7.00 | 6.00 to 7.00 | 6.00 to 7.00 | 6.00 to 7.00 | 6.00 to 7.00 | 7.00 to 8.00 |
| CCn1c(-c2cnccc2COC)c2c3cc(ccc31)-c1cc(O)cc(c1)C[C@H](NC(=O)[C@H](C(C)C)N(C)C(=O)C1CCN(C(=O)[C@H]3CN3)CC1)C(=O)N1CCC[C@H](N1)C(=O)OCC(C)(C)C2 [Example 3] | 6.00 to 7.00 | 7.00 to 8.00 | 7.00 to 8.00 | 6.00 to 7.00 | 5.00 to 6.00 | 6.00 to 7.00 | 6.00 to 7.00 | 7.00 to 8.00 |
| CCn1c(-c2cnccc2COC)c2c3cc(ccc31)-c1cc(O)cc(c1)C[C@H](NC(=O)[C@H](C(C)C)N(C)C(=O)C1CCN(C(=O)[C@@H]3CN3)CC1)C(=O)N1CCC[C@H](N1)C(=O)OCC(C)(C)C2 [Example 4] | 6.00 to 7.00 | 7.00 to 8.00 | 7.00 to 8.00 | 6.00 to 7.00 | 5.00 to 6.00 | 6.00 to 7.00 | 6.00 to 7.00 | 6.00 to 7.00 |
| CCn1c(-c2cnccc2COC)c2c3cc(ccc31)-c1cc(O)cc(c1)C[C@H](NC(=O)[C@H](C(C)C)N(C)C(=O)C1CN(C(=O)[C@H]3CN3)C1)C(=O)N1CCC[C@H](N1)C(=O)OCC(C)(C)C2 [Example 5] | 6.00 to 7.00 | 7.00 to 8.00 | 6.00 to 7.00 | 6.00 to 7.00 | 5.00 to 6.00 | 6.00 to 7.00 | 6.00 to 7.00 | > 8.00 |
| CCn1c(-c2cnccc2COC)c2c3cc(ccc31)-c1cc(O)cc(c1)C[C@H](NC(=O)[C@H](C(C)C)N(C)C(=O)C1CN(C(=O)[C@@H]3CN3)C1)C(=O)N1CCC[C@H](N1)C(=O)OCC(C)(C)C2 [Example 6] | 6.00 to 7.00 | 7.00 to 8.00 | 6.00 to 7.00 | 6.00 to 7.00 | 5.00 to 6.00 | 6.00 to 7.00 | 5.00 to 6.00 | 7.00 to 8.00 |
| CCn1c(-c2cnccc2COC)c2c3cc(ccc31)-c1cc(O)cc(c1)C[C@H](NC(=O)[C@@H](CCNC(=O)NCCCl)C(C)C)C(=O)N1CCC[C@H](N1)C(=O)OCC(C)(C)C2 [Example 26] | 5.00 to 6.00 | 5.00 to 6.00 | < 5.00 | 5.00 to 6.00 | < 5.00 | < 5.00 | 5.00 to 6.00 | 5.00 to 6.00 |
| CCn1c(-c2cccnc2COC)c2c3cc(ccc31)-c1cc(O)cc(c1)C[C@H](NC(=O)[C@H](C(C)C)N(C)C(=O)CCNC1=NCCO1)C(=O)N1CCC[C@H](N1)C(=O)OCC(C)(C)C2 [Example 27] | 5.00 to 6.00 | 5.00 to 6.00 | 5.00 to 6.00 | 5.00 to 6.00 | < 5.00 | < 5.00 | 5.00 to 6.00 | < 5.00 |
| CCn1c(-c2cccnc2COC)c2c3cc(ccc31)-c1cc(O)cc(c1)C[C@H](NC(=O)[C@H](C(C)C)N(C)C(=O)CNC1=NCCO1)C(=O)N1CCC[C@H](N1)C(=O)OCC(C)(C)C2 [Example 28] | 5.00 to 6.00 | 5.00 to 6.00 | 5.00 to 6.00 | < 5.00 | < 5.00 | < 5.00 | 5.00 to 6.00 | 5.00 to 6.00 |
| CCn1c(-c2cnccc2COC)c2c3cc(ccc31)-c1cc(O)cc(c1)C[C@H](NC(=O)[C@H](C(C)C)N(C)C(=O)[C@H]1CCN(C(=O)[C@@H]3CO3)C1)C(=O)N1CCC[C@H](N1)C(=O)OCC(C)(C)C2 [Example 31, (3S)—N-((2S)-1-(((6^3S,4S)-1^1-ethyl-25-hydroxy-1^2-(4-(methoxymethyl)pyridin-3-yl)-10,10-dimethyl-5,7-dioxo-6^1,6^2,6^3,6^4,6^5,6^6-hexahydro-1^1H-8-oxa-1 (5,3)-indola-6 (1,3)-pyridazina-2 (1,3)-benzenacycloundecaphane-4-yl)amino)-3-methyl-1-oxobutan-2-yl)-N-methyl-1-((S)-oxirane-2-carbonyl) pyrrolidine-3-carboxamide] | 6.00 to 7.00 | 7.00 to 8.00 | 6.00 to 7.00 | 5.00 to 6.00 | 5.00 to 6.00 | 6.00 to 7.00 | 5.00 to 6.00 | 6.00 to 7.00 |
| CCn1c(-c2cnccc2COC)c2c3cc(ccc31)-c1cc(O)cc(c1)C[C@H](NC(=O)[C@H](C(C)C)N(C)C(=O)CCN(C)C(=O)[C@@H]1CN1)C(=O)N1CCC[C@H](N1)C(=O)OCC(C)(C)C2 [Example 40] | 6.00 to 7.00 | 6.00 to 7.00 | 6.00 to 7.00 | 6.00 to 7.00 | 6.00 to 7.00 | 6.00 to 7.00 | 6.00 to 7.00 | 6.00 to 7.00 |
| CCn1c(-c2cnccc2COC)c2c3cc(ccc31)-c1cc(O)cc(c1)C[C@H](NC(=O)[C@H](C(C)C)N(C)C(=O)N1CCCN(C(=O)[C@H]3CN3)CC1)C(=O)N1CCC[C@H](N1)C(=O)OCC(C)(C)C2 [Example 44] | 7.00 to 8.00 | 7.00 to 8.00 | 7.00 to 8.00 | 7.00 to 8.00 | 6.00 to 7.00 | 6.00 to 7.00 | 6.00 to 7.00 | 7.00 to 8.00 |
| CCn1c(-c2cnccc2COC)c2c3cc(ccc31)-c1cc(O)cc(c1)C[C@H](NC(=O)[C@H](C(C)C)N(C)C(=O)N1CCCN(C(=O)[C@@H]3CN3)CC1)C(=O)N1CCC[C@H](N1)C(=O)OCC(C)(C)C2 [Example 45] | 6.00 to 7.00 | 7.00 to 8.00 | 7.00 to 8.00 | 7.00 to 8.00 | 6.00 to 7.00 | 6.00 to 7.00 | 6.00 to 7.00 | 7.00 to 8.00 |
| CCn1c(-c2cnccc2COC)c2c3cc(ccc31)-c1cc(O)cc(c1)C[C@H](NC(=O)[C@H](C(C)C)N(C)C(=O)c1ccc(NC(=O)[C@@H]3CN3)cn1)C(=O)N1CCC[C@H](N1)C(=O)OCC(C)(C)C2 [Example 46] | 5.00 to 6.00 | 6.00 to 7.00 | 6.00 to 7.00 | 5.00 to 6.00 | 5.00 to 6.00 | 6.00 to 7.00 | 5.00 to 6.00 | 6.00 to 7.00 |
| CCn1c(-c2cnccc2COC)c2c3cc(ccc31)-c1cc(O)cc(c1)C[C@H](NC(=O)[C@@H](CN(C)C(=O)[C@@H]1CN1)C(C)C)C(=O)N1CCC[C@H](N1)C(=O)OCC(C)(C)C2 [Example 60] | 5.00 to 6.00 | 5.00 to 6.00 | < 5.00 | < 5.00 | < 5.00 | < 5.00 | < 5.00 | < 5.00 |
